The values that follow come from US20220346381A1, “COMPOSITION FOR PREVENTING THE FORMATION OF SEEDS IN FRUIT” (ASOCIACION CLUB DE VARIEDADES VEGETALES PROTEGIDAS, priority 2019, published 2022).

Each structure is given as a SMILES string. “And” between values parts separate entries of the source, which are not always exact repeats. Identical values can stand only once. “Also recorded” adds a separate entry of the source.

The subject of data set [1] is aubergines Solanum melongena L. Kind of data set: Treatment of individual flowers, fruit seeds and pollen tubes in the stigma. The format is in vivo. The source says:
(§1) Fruit: treatment of individual flowers and subsequent observation of the fruit formed from the treated flower. […] C+=Positive control=flower pollinated but NOT treated with the active product; PT=Pollen tubes (fluorescent fibres); AP=Active product.

Data set [2] concerns cucumber fruit Cucumis sativus L. The experiment in a line: Treatment of individual flowers, observation of the fruit formed (seeds). As to conditions: scale Fruit. The format is in vivo.
Description: as §1

The test system of data set [3] is flowers of the Nadorcott mandarin. The experiment in a line: Action over time, post-pollination treatment of flowers, seeds in fruit. The format is in vivo. Here is the method:
In order to study the action over time of the product, two experiments were carried out on the flowers of the Nadorcott mandarin, one pre-pollination and the other post-pollination. In the pre-pollination experiment 300 flowers were treated with the product of the invention (S8) and subsequently pollinated in batches. One batch was pollinated on the same day (D0) and another batch the following day (D1), and so on successively until D9. In the post-pollination experiment 360 flowers were first pollinated. In this case, after first having been pollinated a batch was treated with the product on the same day (D0), another batch the following day (D1) and so on successively until day 9 (D9).

For data set [4], the system named is common bumblebee (Bombus sp.). The experiment in a line: Effects on pollinators, laboratory mortality test. The format is in vivo. The settings on record: for toxicity classification for bumblebees / pollinators: international scale: non-toxic = acute LD50 >100 μg/bee.
Data set [5] concerns grapes Vitis vinifera L. The experiment in a line: Treatment of individual pollinated flowers, pollen tubes in the stigma by fluorescence microscopy. In kind it is in vivo. Here is the method:
(§2) Flower: treatment on individual flowers and microscopic observation of fluorescence. In this case the presence or absence of pollen tubes (PT) in the stigma was assessed as was their percentage reduction compared to positive controls. […] C+=Positive control=flower pollinated but NOT treated with the active product; PT=Pollen tubes (fluorescent fibres); AP=Active product.

In data set [6] the test system is Grapefruit. Kind of data set: Treatment of individual pollinated flowers, pollen tubes in the stigma. The format is in vivo, grapefruit tree. Here is the method: as §2
Data set [7] relates to lemons Citrus limon L. Burm. f. Described as above. In kind it is in vivo. Here is the method: as §2
Data set [8] relates to Nova. C. clementine x [C.paradisi x C.tangerina]. Described as above. The format is in vivo. Here is the method: as §2
Data set [9] deals with Murcott Citrus reticulata White. Described as above. In kind it is in vivo. Here is the method:
as §2

The test system of data set [10] is Mexican lime. Described as above. The format is in vivo. Here is the method:
as §2

The test system of data set [11] is Nadorcott (mandarin). The description is as above. The format is in vivo. Here is the method: as §2
Data set [12] has as its system clementine fina Citrus clementine hort. Ex Tanaka. The description is as above. In kind it is in vivo. Here is the method: as §2
The test system of data set [13] is clemenules Citrus clementine hort. Ex Tanaka. The data set is described as above. In kind it is in vivo. Here is the method: as §2
For data set [14], the system named is flowers of the Nadorcott mandarin. Kind of data set: Action over time, pre-pollination treatment of flowers, seeds in fruit. In kind it is in vivo. As to conditions: flowers treated, then pollinated D0 to D9; positive control 4.67 seeds. Here is the method: In order to study the action over time of the product, two experiments were carried out on the flowers of the Nadorcott mandarin, one pre-pollination and the other post-pollination. In the pre-pollination experiment 300 flowers were treated with the product of the invention (S8) and subsequently pollinated in batches. One batch was pollinated on the same day (D0) and another batch the following day (D1), and so on successively until D9.

In data set [15] the test system is adult trees of the Nadorcott mandarin variety. The experiment in a line: Phyto-toxicity on sprayed adult trees (chlorosis, necrosis, defoliation). In kind it is in vivo. The settings on record: recommended concentrations (below 4%); listed as active product. Here is the method: Phyto-toxicity tests were performed on adult trees of the Nadorcott mandarin variety. The trees were sprayed with different concentrations of the active product (S8). The level of affection on chlorosis, necrosis and defoliation was assessed, on a scale of 1 to 6, with 1 being very low and 6 being very high.

The subject of data set [16] is Nadorcott (mandarin). Kind of data set: Field treatment by tractor on entire rows of adult trees, seeds. The settings on record: scale Field. In kind it is in vivo. The text has this:
Field: treatments by tractor on entire rows of adult trees.

Data set [17] has as its system Sweet orange. The experiment in a line: Treatment of individual pollinated flowers, pollen tubes in the stigma. The format is in vivo, orange tree. Here is the method: as §2
Data set [18] relates to Nadorcott variety (mandarin). Kind of data set: Treatment of entire trees, number of seeds in the fruit. The format is in vivo.
In data set [19] the test system is watermelons Citrullus lanatus (Thunb.) Matsum. & Nakai. The experiment in a line: Treatment of individual flowers, pollen tubes in the stigma. The format is in vivo. Here is the method:
Flower: treatment on individual flowers and microscopic observation of fluorescence. In this case the presence or absence of pollen tubes (PT) in the stigma was assessed as was their percentage reduction compared to positive controls. Fruit: treatment of individual flowers and subsequent observation of the fruit formed from the treated flower. […] C+=Positive control=flower pollinated but NOT treated with the active product; PT=Pollen tubes (fluorescent fibres); AP=Active product.

Data set [20] concerns stigma papilla cells of mandarin flower. The experiment in a line: Microscopy of stigma treated with sulphur only or gibberellic acid only. In kind it is in vivo. As to conditions: for state of stigma papilla cells (semi-thin cut): mandarin stigma treated with a single component only; for pollen tubes in the stigma of pollinated mandarin flower (fluorescence microscope): treated with a single component only. The text has this: The active ingredient sulphur, preferably in the form of an octatomic molecule (S8), is responsible for preventing the formation of seeds through the alteration of papilla cells of the stigma, whilst the GA is responsible for re-establishing the stimuli needed for the formation of the fruit, thus preventing a possible reduction in yield. The need for GA will depend on each crop and its parthenocarpic capacity. […] This mechanism is substantially due to the effect of sulphur. […] The effect of the active ingredient (sulphur) and gibberellic acid (GA) on papilla cells can be compared separately in FIGS. 6 and 7 through semi-thin microscope cuts.

In data set [21] the test system is pollen grains. The experiment in a line: Germination of pollen grains on Petri dishes. The settings on record: assessed after 72 hours. In kind it is cell-based. Here is the method: The action of the product on the germination of pollen grains was studied. To that end, pollen grains were sown on Petri dishes in laboratory conditions to which growing medium increasing concentrations of the active product (S8) were added. After 72 hours they were assessed and the number of germinated pollen grains were counted on each Petri dish.
A non-toxic, neutral product (sample), KNO3 was used for comparing the results with those obtained from the active product (AP).

For data set [22] the following is noted: purified powder; cited from earlier work.
Data set [23] relates to mandarin. As to conditions: literature [1,2]; cited from earlier work.

As for `S1SSSSSSS1` [(S8), sulphur (S) as an octatomic molecule (S8)], the red. seeds result in data set [1] (Aubergine, scale Fruit) is “=100% red. seeds (FIG. 11A and 11B)”; in data set [2] it was “=100% red. seeds (FIG. 10A and 10B)”. Also, the “pollen tubes in treated stigma (fluorescence image)” value is “without PT” in [1] (aubergine); “without PT” in [5] (grape, pollinated flower); “without PT” in data set [7] (lemon); “without PT” in data set [8] (Nova); “without PT” in data set [9]; “without PT” in data set [12] (clementine fina). The “pollen tubes in treated stigma (fluorescence image)” value in data set [13] (clemenules) and in data set [19] (watermelon) was “without PT” in each case. The “seeds prevented, post-pollination treatment” value in data set [3] (treated D0 to D3 after pollination, positive control 4.7 seeds) is recorded as 100%; in [3] (treated D4-D9 after pollination) it was “approximately 50%”. In data set [4] (bumblebees, at 48 h), this compound returned a mortality rate of 50%. For the same compound, the “toxicity classification for bumblebees / pollinators” value in data set [4] (listed as active ingredient) was “non-toxic”; in data set [4] (listed as active product), “non-toxic for pollinator insects”. Also, the “red. of PT” value is “=100% red. of PT (FIG. 9A and 9B)” in data set [5] (Vid, scale Flower, vs positive control); “=100% red. of PT (FIG. 19)” in data set [6] (Grapefruit, scale Flower); “=100% red. of PT (FIG. 17A and 17B)” in [7] (Lemon, scale Flower); “=100% red. of PT (FIG. 16A and 16B)” in [8] (Nova (tangelo), scale Flower); “=100% red. of PT (FIG. 15A and 15B)” in [9] (scale Flower); “=100% red. of PT (FIG. 20)” in data set [10] (scale Flower). Besides, the “red. of PT” value in data set [11] (Nadorcott, scale Flower) was “=100% red. of PT”; in data set [12] (Fina, scale Flower), “=100% red. of PT (FIG. 14A and 14B)”; in [13] (Clemenules, scale Flower) it was “=100% red. of PT (FIG. 13A and 13B)”; in data set [17] (Sweet orange, scale Flower), “=100% red. of PT (FIG. 18)”; in data set [19] (Watermelon, scale printed Fruit) it was “=100% red. of PT (FIG. 12A and 12B)”. Besides, the “pollen tubes in treated pollinated flowers (fluorescence image)” value in data set [6] (grapefruit tree), in data set [10] and in [17] (orange tree) was “No visible PT” each time. Besides, the “efficiencies when applied directly on the flower” value in data set [11] (direct application on the flower) is listed as 95-100%. For the same compound, in data set [14], the “seeds in fruit after pre-pollination treatment” value is “did not present a single seed”. For the same compound, the “phyto-toxicity (chlorosis, necrosis, defoliation)” value in data set [15] is on record as “does not produce necrosis, chlorosis or defoliation; also recorded: not phyto-toxic”. For the same compound, the red. of seeds entry is given as “=81% red. of seeds” in data set [16] and about 85% in [18] (Nadorcott, scale Tree). Also, in [18] (entire Nadorcott trees, six experimental products compared), the “reduction of the average number of seeds compared to the positive control (in words)” value was “only one to significantly reduce the average number of seeds”. In [18] (entire Nadorcott trees, about 120 fruits per treatment, positive control C+ 3.3, listed as T1), the “mean number of seeds in the fruit” value is 0.4 and 0.4083. In addition, the “state of stigma papilla cell (TEM)” value in [20] (TEM, crop not stated) is “lost turgidity and part of its components and appears collapsed”. Further, the “state of stigma papilla cells (semi-thin cut)” value (“state of stigma papilla cells” below) in data set [20] is reported as “damaged”; in data set [20] (listed as active ingredient (sulphur)), “damaged stigma, without turgidity”. The “pollen tubes in the stigma of pollinated mandarin flower (fluorescence microscope)” value in [20] (listed as active ingredient (S8)) was “without pollen tubes; also recorded: no pollen tubes in the stigmatic area”. In data set [21], the “concentration at which inhibition of pollen grain germination is total” value came to 2000 mg/L.
In the case of `C=C1C[C@]23C[C@@]1(O)CC[C@H]2[C@@]12C=C[C@H](O)[C@@](C)(C(=O)O1)[C@H]2[C@@H]3C(=O)O` [GA, gibberellic acid, reference compound], in data set [22], the solubility in ethanol entry is recorded as “soluble in ethanol” and the solubility in water entry is listed as “somewhat soluble in water”. Besides, in data set [23], the “effectiveness for reducing the number of seeds in real field conditions (in words)” value is “not effective for reducing the number of seeds”. Also, in [20], the “state of stigma papilla cells” value was “intact, functional and turgid”; the “pollen tubes in the stigma of pollinated mandarin flower (fluorescence microscope)” value was “developed pollen tubes can be clearly observed”. Also, in [20] (listed as gibberellic acid), the “state of stigma papilla cells” value is “good, functional and turgid”; the “pollen tubes in the stigma of pollinated mandarin flower (fluorescence microscope)” value was “presence of pollen tubes inside the stigma can be clearly seen”.
On to `O=[N+]([O-])[O-].[K+]` [Treatment T3, potassium nitrate, reference compound], for which the “mean number of seeds in the fruit” value in data set [18] (in vivo) amounted to 3.333.
With `OC[C@H]1O[C@@](CO)(O[C@H]2O[C@H](CO)[C@@H](O)[C@H](O)[C@H]2O)[C@@H](O)[C@@H]1O` [Treatment T6, sucrose, reference compound], the “mean number of seeds in the fruit” value in data set [18] (entire Nadorcott trees, about 120 fruits per treatment, positive control C+ 3.3) turned out to be 3.183.
